{
  "source": "patent US11446287B2",
  "about": "“Compounds and methods for EP300 or CBP modulation and indications therefor” (Opna Immuno-Oncology SA, priority 2019, dated 2022)",
  "data": [
    {"target": "T1, Recombinant human BRD4 containing dual bromodomains (BRD4-BD12 (1-477)) (Homo sapiens, UniProt O60885)", "T1 construct": "Recombinant human BRD4 containing dual bromodomains (BRD4-BD12 (1-477)); made in house; host or cells: E. coli BL21-CodonPlus (DE3), modified pET vector", "assay": "BRD4 Alphascreen binding assay", "procedure,_shortened": "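AlphaScreen proximity between Ni-chelate-bound BRD4-BD12 (1-477) and streptavidin-captured H4 K5/K8/K12/K16-acetyl peptide measured after 1 h room-temperature compound incubation and 30 min with 7.5 μg/ml beads. Buffer: 50 mM HEPES pH 7.5, 50 mM NaCl, 0.01% BSA, 0.01% Triton X-100; data plate-normalized and four-parameter fit for IC50.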", "units": {"IC50": "µM"}, "values": [
      {"smiles": "Cc1noc(C)c1-c1ccc2c(c1)c(-c1ccc(C(=O)O)cc1OC(F)(F)F)cn2C(C1CC1)C1CC1", "note": "[P-0344, 4-(1-(dicyclopropylmethyl)-5-(3,5-dimethylisoxazol-4-yl)-1H-indol-3-yl)-3-(trifluoromethoxy)benzoic acid]", "IC50": "8 to 1000"},
      {"smiles": "Cc1noc(C)c1-c1cnc2c(c1)c(-c1c(Cl)cc(C(=O)O)cc1OC(C)C)cn2C1CCOCC1", "note": "[P-0372, 3-chloro-4-(5-(3,5-dimethylisoxazol-4-yl)-1-(tetrahydro-2H-pyran-4-yl)-1H-pyrrolo[2,3-b]pyridin-3-yl)-5-isopropoxybenzoic acid]", "IC50": "1 to 8"},
      {"smiles": "Cc1noc(C)c1-c1cnc2c(c1)c(-c1c(Cl)cc(C(=O)O)cc1OC(F)(F)F)cn2[C@H]1CCOC1", "note": "[P-0346, (S)-3-chloro-4-(5-(3,5-dimethylisoxazol-4-yl)-1-(tetrahydrofuran-3-yl)-1H-pyrrolo[2,3-b]pyridin-3-yl)-5-(trifluoromethoxy)benzoic acid]", "IC50": "8 to 1000"},
      {"smiles": "Cc1noc(C)c1-c1cnc2c(c1)c(-c1c(Cl)cc(C(=O)O)cc1OCC(F)F)cn2-c1cnc(N2CCC2)nc1", "note": "[P-0331, 4-(1-(2-(azetidin-1-yl)pyrimidin-5-yl)-5-(3,5-dimethylisoxazol-4-yl)-1H-pyrrolo[2,3-b]pyridin-3-yl)-3-chloro-5-(2,2-difluoroethoxy)benzoic acid]", "IC50": "0.0001 to 1"},
      {"smiles": "Cc1noc(C)c1-c1cnc2c(c1)c(-c1ccc(C(=O)O)cc1OC(C)C)c(C)n2C(C1CC1)C1CC1", "note": "[P-0342, 4-(1-(dicyclopropylmethyl)-5-(3,5-dimethylisoxazol-4-yl)-2-methyl-1H-pyrrolo[2,3-b]pyridin-3-yl)-3-isopropoxybenzoic acid]", "IC50": "8 to 1000"},
      {"smiles": "Cc1noc(C)c1-c1cnc2c(c1)c(-c1c(Cl)cc(C(=O)O)cc1OCC(F)F)cn2C(C1CC1)C1CC1", "note": "[P-0340, 3-chloro-4-(1-(dicyclopropylmethyl)-5-(3,5-dimethylisoxazol-4-yl)-1H-pyrrolo[2,3-b]pyridin-3-yl)-5-(2,2-difluoroethoxy)benzoic acid]", "IC50": "8 to 1000"},
      {"smiles": "Cc1noc(C)c1-c1cnc2c(c1)c(-c1c(Cl)cc(C(=O)O)cc1OCC(F)F)cn2-c1cnn(C(F)F)c1C", "note": "[P-0352, 3-chloro-5-(2,2-difluoroethoxy)-4-(1-(1-(difluoromethyl)-5-methyl-1H-pyrazol-4-yl)-5-(3,5-dimethylisoxazol-4-yl)-1H-pyrrolo[2,3-b]pyridin-3-yl)benzoic acid]", "IC50": "1 to 8"},
      {"smiles": "Cc1nn(C(F)F)cc1-n1cc(-c2ccc(C(=O)O)cc2OC2CCC2)c2cc(-c3c(C)noc3C)cnc21", "note": "[P-0351, 3-cyclobutoxy-4-(1-(1-(difluoromethyl)-3-methyl-1H-pyrazol-4-yl)-5-(3,5-dimethylisoxazol-4-yl)-1H-pyrrolo[2,3-b]pyridin-3-yl)benzoic acid]", "IC50": "8 to 1000"},
      {"smiles": "Cc1noc(C)c1-c1cnc2c(c1)c(-c1ccc(C(C)(C)C(=O)O)cc1)cn2C(c1ccccn1)C1CCCC1", "note": "(centres unmarked) [P-0032, 2-(4-(1-(cyclopentyl(pyridin-2-yl)methyl)-5-(3,5-dimethylisoxazol-4-yl)-1H-pyrrolo[2,3-b]pyridin-3-yl)phenyl)-2-methylpropanoic acid]", "IC50": "1 to 8"},
      {"smiles": "Cc1noc(C)c1-c1cnc2c(c1)c(-c1c(F)cc(C(=O)O)cc1OCC(F)F)cn2-c1cnc(N2CCC2)nc1", "note": "[P-0348, 4-(1-(2-(azetidin-1-yl)pyrimidin-5-yl)-5-(3,5-dimethylisoxazol-4-yl)-1H-pyrrolo[2,3-b]pyridin-3-yl)-3-(2,2-difluoroethoxy)-5-fluorobenzoic acid]", "IC50": "8 to 1000"},
      {"smiles": "Cc1noc(C)c1-c1cnc2c(c1)c(-c1c(Cl)cc(C(=O)O)cc1OC1CCC1)cn2[C@H]1CCOC1", "note": "[P-0361, (S)-3-chloro-5-cyclobutoxy-4-(5-(3,5-dimethylisoxazol-4-yl)-1-(tetrahydrofuran-3-yl)-1H-pyrrolo[2,3-b]pyridin-3-yl)benzoic acid]", "IC50": "8 to 1000"},
      {"smiles": "Cc1noc(C)c1-c1cnc2c(c1)c(-c1ccc(C(=O)O)cc1OCC(F)F)cn2[C@H]1CCOC1", "note": "[P-0325, (S)-3-(2,2-difluoroethoxy)-4-(5-(3,5-dimethylisoxazol-4-yl)-1-(tetrahydrofuran-3-yl)-1H-pyrrolo[2,3-b]pyridin-3-yl)benzoic acid]", "IC50": "8 to 1000"},
      {"smiles": "Cc1noc(C)c1-c1cnc2c(c1)c(-c1c(Cl)cc(C(=O)O)cc1OCC(F)F)cn2-c1ccccc1", "note": "[P-0332, 3-chloro-5-(2,2-difluoroethoxy)-4-(5-(3,5-dimethylisoxazol-4-yl)-1-phenyl-1H-pyrrolo[2,3-b]pyridin-3-yl)benzoic acid]", "IC50": "1 to 8"},
      {"smiles": "Cc1noc(C)c1-c1cnc2c(c1)c(-c1ccc(C(=O)O)cc1OC1CCC1)cn2-c1cnc(N2CCC2)nc1", "note": "[P-0347, 4-(1-(2-(azetidin-1-yl)pyrimidin-5-yl)-5-(3,5-dimethylisoxazol-4-yl)-1H-pyrrolo[2,3-b]pyridin-3-yl)-3-cyclobutoxybenzoic acid]", "IC50": "8 to 1000"},
      {"smiles": "Cc1nn(C(F)F)cc1-n1cc(-c2ccc(C(=O)O)cc2OCC(F)F)c2cc(-c3c(C)noc3C)cnc21", "note": "[P-0349, 3-(2,2-difluoroethoxy)-4-(1-(1-(difluoromethyl)-3-methyl-1H-pyrazol-4-yl)-5-(3,5-dimethylisoxazol-4-yl)-1H-pyrrolo[2,3-b]pyridin-3-yl)benzoic acid]", "IC50": "8 to 1000"},
      {"smiles": "Cc1noc(C)c1-c1cnc2c(c1)c(-c1ccc(C(=O)O)cc1OC(F)(F)F)cn2C1(C)CCOC1", "note": "(centres unmarked) [P-0383, 4-(5-(3,5-dimethylisoxazol-4-yl)-1-(3-methyltetrahydrofuran-3-yl)-1H-pyrrolo[2,3-b]pyridin-3-yl)-3-(trifluoromethoxy)benzoic acid]", "IC50": "8 to 1000"},
      {"smiles": "Cc1noc(C)c1-c1cnc2c(c1)c(-c1ccc(C(=O)O)cc1OC1CC1)cn2C1CCOCC1", "note": "[P-0379, 3-cyclopropoxy-4-(5-(3,5-dimethylisoxazol-4-yl)-1-(tetrahydro-2H-pyran-4-yl)-1H-pyrrolo[2,3-b]pyridin-3-yl)benzoic acid]", "IC50": "8 to 1000"},
      {"smiles": "CCOc1cc(C(=O)O)c(F)cc1-c1cn(-c2ccc(F)cc2F)c2ncc(-c3c(C)noc3C)cc12", "note": "[P-0330, 4-(1-(2,4-difluorophenyl)-5-(3,5-dimethylisoxazol-4-yl)-1H-pyrrolo[2,3-b]pyridin-3-yl)-5-ethoxy-2-fluorobenzoic acid]", "IC50": "1 to 8"},
      {"smiles": "CCn1cc(-n2cc(-c3ccc(C(=O)O)cc3OCC(F)F)c3cc(-c4c(C)noc4C)cnc32)c(C)n1", "note": "[P-0326, 3-(2,2-difluoroethoxy)-4-(5-(3,5-dimethylisoxazol-4-yl)-1-(1-ethyl-3-methyl-1H-pyrazol-4-yl)-1H-pyrrolo[2,3-b]pyridin-3-yl)benzoic acid]", "IC50": "8 to 1000"},
      {"smiles": "Cc1noc(C)c1-c1cnc2c(c1)c(-c1c(Cl)cc(C(=O)O)cc1OC1CCC1)cn2C1CCOCC1", "note": "[P-0358, 3-chloro-5-cyclobutoxy-4-(5-(3,5-dimethylisoxazol-4-yl)-1-(tetrahydro-2H-pyran-4-yl)-1H-pyrrolo[2,3-b]pyridin-3-yl)benzoic acid]", "IC50": "1 to 8"},
      {"smiles": "Cc1noc(C)c1-c1cnc2c(c1)c(-c1ccc(C(=O)O)cc1OC(F)(F)F)cn2-c1ccc(C(=O)O)cc1", "note": "[P-0322, 4-(1-(4-carboxyphenyl)-5-(3,5-dimethylisoxazol-4-yl)-1H-pyrrolo[2,3-b]pyridin-3-yl)-3-(trifluoromethoxy)benzoic acid]", "IC50": "1 to 8"},
      {"smiles": "Cc1noc(C)c1-c1cnc2c(c1)c(-c1ccc(C3(C(=O)O)CC3)cc1)cn2C(c1ccccn1)C1CCCC1", "note": "(centres unmarked) [P-0033, 1-(4-(1-(cyclopentyl(pyridin-2-yl)methyl)-5-(3,5-dimethylisoxazol-4-yl)-1H-pyrrolo[2,3-b]pyridin-3-yl)phenyl)cyclopropane-1-carboxylic acid]", "IC50": "1 to 8"},
      {"smiles": "CCOc1cc(C(=O)O)nc(OCC)c1-c1cn(C2CCOCC2)c2ncc(-c3c(C)noc3C)cc12", "note": "[P-0373, 5-(5-(3,5-dimethylisoxazol-4-yl)-1-(tetrahydro-2H-pyran-4-yl)-1H-pyrrolo[2,3-b]pyridin-3-yl)-4,6-diethoxypicolinic acid]", "IC50": "8 to 1000"},
      {"smiles": "Cc1noc(C)c1-c1cnc2c(c1)c(-c1c(Cl)cc(C(=O)O)cc1OC(F)(F)F)cn2C1CCOCC1", "note": "[P-0355, 3-chloro-4-(5-(3,5-dimethylisoxazol-4-yl)-1-(tetrahydro-2H-pyran-4-yl)-1H-pyrrolo[2,3-b]pyridin-3-yl)-5-(trifluoromethoxy)benzoic acid]", "IC50": "1 to 8"},
      {"smiles": "Cc1noc(C)c1-c1cnc2c(c1)c(-c1ccc(C(=O)O)cc1OC(F)(F)F)c(C)n2-c1ncccc1C#N", "note": "[P-0345, 4-(1-(3-cyanopyridin-2-yl)-5-(3,5-dimethylisoxazol-4-yl)-2-methyl-1H-pyrrolo[2,3-b]pyridin-3-yl)-3-(trifluoromethoxy)benzoic acid]", "IC50": "8 to 1000"},
      {"smiles": "Cc1noc(C)c1-c1cnc2c(c1)c(-c1ccc(C(=O)O)cc1OC(F)(F)F)cn2C1CCC1", "note": "[P-0378, 4-(1-cyclobutyl-5-(3,5-dimethylisoxazol-4-yl)-1H-pyrrolo[2,3-b]pyridin-3-yl)-3-(trifluoromethoxy)benzoic acid]", "IC50": "0.0001 to 1"},
      {"smiles": "CCOc1cc(C(=O)O)c(F)cc1-c1cn([C@H]2CCOC2)c2ncc(-c3c(C)noc3C)cc12", "note": "[P-0360, (S)-4-(5-(3,5-dimethylisoxazol-4-yl)-1-(tetrahydrofuran-3-yl)-1H-pyrrolo[2,3-b]pyridin-3-yl)-5-ethoxy-2-fluorobenzoic acid]", "IC50": "8 to 1000"},
      {"smiles": "Cc1noc(C)c1-c1cnc2c(c1)c(-c1ccc(C(=O)O)cc1OC(F)(F)F)cn2C1(CC#N)CCC1", "note": "[P-0335, 4-(1-(1-(cyanomethyl)cyclobutyl)-5-(3,5-dimethylisoxazol-4-yl)-1H-pyrrolo[2,3-b]pyridin-3-yl)-3-(trifluoromethoxy)benzoic acid]", "IC50": "8 to 1000"},
      {"smiles": "CCOc1nc(C(=O)O)ccc1-c1cn(C2CCOCC2)c2ncc(-c3c(C)noc3C)cc12", "note": "[P-0376, 5-(5-(3,5-dimethylisoxazol-4-yl)-1-(tetrahydro-2H-pyran-4-yl)-1H-pyrrolo[2,3-b]pyridin-3-yl)-6-ethoxypicolinic acid]", "IC50": "8 to 1000"}
    ]}
  ]
}
